What was measured:
[1] = target: Glycogen synthase kinase-3 beta (Homo sapiens, UniProt P49841); assay: Inhibitory activity against glycogen synthase kinase-3 (GSK-3beta).
[2] = target: T1, cAMP-dependent protein kinase (PKA) (Homo sapiens, UniProt P22694+P17612+P22612); assay: Inhibitory activity against protein kinase A (PKA ); format: protein assay
[3] = target: T1, cAMP-dependent protein kinase (PKA); assay: Inhibition of protein kinase A (PKA); format: protein assay

Glycogen synthase kinase-3 beta, sequence (P49841 whole entry): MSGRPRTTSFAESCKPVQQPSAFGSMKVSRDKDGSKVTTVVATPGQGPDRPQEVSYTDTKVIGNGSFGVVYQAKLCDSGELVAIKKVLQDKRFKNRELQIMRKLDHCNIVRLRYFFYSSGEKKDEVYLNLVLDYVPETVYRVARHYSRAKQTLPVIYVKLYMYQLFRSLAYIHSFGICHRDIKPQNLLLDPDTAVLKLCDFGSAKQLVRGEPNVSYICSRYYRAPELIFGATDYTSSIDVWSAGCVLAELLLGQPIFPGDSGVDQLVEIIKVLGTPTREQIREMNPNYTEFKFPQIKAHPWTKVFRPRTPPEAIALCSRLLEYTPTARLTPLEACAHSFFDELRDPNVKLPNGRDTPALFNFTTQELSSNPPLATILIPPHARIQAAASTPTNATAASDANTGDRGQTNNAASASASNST

SMILES | IC50 [1] | IC50 [2] | IC50 [3]
Cc1csc(C(=O)CCl)c1 | > 100 µM |  | 
O=C(CCl)c1ccc(Cl)cc1 | 2.5 µM | > 100 µM | 
CC(=O)c1ccc(C(=O)CCl)s1 | 50 µM |  | 
Cc1ccc(C(=O)CCl)s1 | > 100 µM |  | 
CC(=O)c1csc(C(=O)CCl)c1 | 8 µM | > 100 µM | 
O=C(CCl)c1cc(Cl)c(Cl)s1 | 2.5 µM |  | 
O=C(CCl)c1cscc1Cl | 25 µM | > 100 µM | 
O=C(CBr)c1ccccc1 | 5 µM | > 100 µM | 
O=C(CBr)c1ccc(-c2ccccc2)cc1 | 2.5 µM | > 100 µM | 
O=C(CCl)c1csc(C(=O)CCl)c1 | 1.5 µM | > 100 µM | 
O=C(CCl)c1ccccc1 [PHENACYL CHLORIDE] | 50 µM |  | 
O=C(CCl)c1c(Br)sc(Cl)c1Cl | 2 µM |  | > 100 µM
Cc1sc(C(=O)CCl)cc1C(=O)CCl | 5 µM |  | 
O=C(CCl)c1ccc(Cl)s1 | 10 µM | > 100 µM | 
Cc1ccsc1C(=O)CCl | 75 µM |  | 
Cc1cc(C(=O)CCl)c(C)s1 | > 100 µM |  | 
Cc1c(C(=O)CCl)csc1C(=O)CCl | 5 µM | > 100 µM | 
O=C(CCl)c1c(Br)sc(Br)c1Br | 1 µM |  | 
O=C(CCl)c1cccs1 | 50 µM |  | 
O=C(CCl)c1cc(Br)cs1 | 3 µM |  | 
O=C(CCl)c1scc(Br)c1Br | 0.5 µM | > 100 µM | 
O=C(CCl)c1cc(Br)c(Br)s1 | 1 µM | > 100 µM | 
O=C(CBr)c1ccc(Br)cc1 | 0.5 µM | > 100 µM | 
O=C(CCl)c1ccc(Br)s1 | 10 µM | > 100 µM | 
O=C(CCl)c1cc(Cl)sc1Cl | 5 µM | > 100 µM | 
